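Compound exposure: 48 hours, 5 concentrations, 96-well plates. The concentration for 50% growth inhibition is given as GI50. At the TGI there is no net growth.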
Experiments:
Assay in all cases: DTP human tumour cell line panel, 48 h
[1] = tested on: SK-MEL-2 melanoma
[2] = tested on: SK-OV-3 ovarian
[3] = tested on: NCI-H522 lung
[4] = tested on: EKVX NSCLC
[5] = tested on: RPMI-8226 leukemia
[6] = tested on: SK-MEL-5 melanoma
[7] = tested on: SF-268 CNS
[8] = tested on: KM20L2 colon
[9] = tested on: HCT-15 colon
[10] = tested on: OVCAR-5 ovarian
[11] = tested on: RXF 393 renal
[12] = tested on: CCRF-CEM leukemia
[13] = tested on: OVCAR-8 ovarian
[14] = tested on: HOP-92 NSCLC
[15] = tested on: UO-31 renal
[16] = tested on: SF-295 CNS
[17] = tested on: MALME-3M melanoma
[18] = tested on: IGROV1 ovarian
[19] = tested on: SNB-75 CNS
[20] = tested on: KM12 colon
[21] = tested on: COLO 205 colon
[22] = tested on: MOLT-4 leukemia
[23] = tested on: HOP-18 NSCLC
[24] = tested on: HCC-2998 colon
[25] = tested on: ACHN renal
[26] = tested on: LXFL 529 NSCLC
[27] = tested on: M14 melanoma
[28] = tested on: UACC-62 melanoma
[29] = tested on: SF-539 CNS
[30] = tested on: HOP-62 NSCLC
[31] = tested on: U251 CNS
[32] = tested on: K-562 leukemia
[33] = tested on: A549 NSCLC
[34] = tested on: CAKI-1 renal
[35] = tested on: TK-10 renal
[36] = tested on: NCI-H23 lung
[37] = tested on: DMS 114 small cell lung
[38] = tested on: LOX IMVI melanoma
[39] = tested on: SW-620 colon
[40] = tested on: HT29 colon
[41] = tested on: SNB-19 CNS
[42] = tested on: M19-MEL melanoma
[43] = tested on: OVCAR-3 ovarian
[44] = tested on: NCI-H460 lung
[45] = tested on: UACC-257 melanoma
[46] = tested on: SN12C renal
[47] = tested on: OVCAR-4 ovarian
[48] = tested on: HL-60(TB) leukemia
[49] = tested on: DLD-1 colon
[50] = tested on: SK-MEL-28 melanoma
[51] = tested on: 786-0 renal
[52] = tested on: DMS 273 small cell lung
[53] = tested on: MDA-MB-231 breast
[54] = tested on: T-47D breast
[55] = tested on: MDA-N
[56] = tested on: NCI/ADR-RES ovarian
[57] = tested on: BT-549 breast
[58] = tested on: MDA-MB-435
[59] = tested on: HS 578T breast
[60] = tested on: SR leukemia
[61] = tested on: PC-3 prostate
[62] = tested on: A498 renal
[63] = tested on: HCT-116 colon
[64] = tested on: NCI-H226 lung
[65] = tested on: DU-145 prostate
[66] = tested on: MCF7 breast

Compound: CC(=O)SCCC1c2[nH]c3ccccc3c2CCN1O (configuration not stated)
- TGI [1]: > 100 µM
- TGI [2]: > 100 µM
- TGI [3]: > 100 µM
- TGI [4]: > 100 µM
- TGI [5]: > 100 µM
- TGI [6]: > 100 µM
- TGI [7]: > 100 µM
- TGI [8]: > 100 µM
- TGI [9]: > 100 µM
- TGI [10]: > 100 µM
- TGI [11]: > 100 µM
- TGI [12]: > 100 µM
- TGI [13]: > 100 µM
- TGI [14]: > 100 µM
- TGI [15]: > 100 µM
- TGI [16]: > 100 µM
- TGI [17]: > 100 µM
- TGI [18]: > 100 µM
- TGI [19]: 86.4 µM
- TGI [20]: > 100 µM
- TGI [21]: > 100 µM
- TGI [22]: > 100 µM
- TGI [23]: > 100 µM
- TGI [24]: > 100 µM
- TGI [25]: > 100 µM
- TGI [26]: > 100 µM
- TGI [27]: > 100 µM
- TGI [28]: > 100 µM
- TGI [29]: > 100 µM
- TGI [30]: > 100 µM
- TGI [31]: > 100 µM
- TGI [32]: > 100 µM
- TGI [33]: > 100 µM
- TGI [34]: > 100 µM
- TGI [35]: > 100 µM
- TGI [36]: > 100 µM
- TGI [37]: > 100 µM
- TGI [38]: > 100 µM
- TGI [39]: > 100 µM
- TGI [40]: > 100 µM
- TGI [41]: > 100 µM
- TGI [42]: > 100 µM
- TGI [43]: > 100 µM
- TGI [44]: > 100 µM
- TGI [45]: > 100 µM
- TGI [46]: > 100 µM
- TGI [47]: > 100 µM
- TGI [48]: > 100 µM
- TGI [49]: > 100 µM
- TGI [50]: > 100 µM
- TGI [51]: > 100 µM
- TGI [52]: > 100 µM

Compound: CC(=O)[O][Hg][c]1c(C)c(C)c(C)c(C)c1C
- GI50 [1]: 1.41 µM
- TGI [1]: 3.37 µM
- GI50 [2]: 2.69 µM
- TGI [2]: 6.04 µM
- GI50 [3]: 1.41 µM
- TGI [3]: 3.02 µM
- GI50 [4]: 1.89 µM
- TGI [4]: 3.54 µM
- GI50 [5]: 1.8 µM
- TGI [5]: 6.22 µM
- GI50 [6]: 1.38 µM
- TGI [6]: 2.74 µM
- GI50 [7]: 0.549 µM
- TGI [7]: 2.11 µM
- GI50 [53]: 0.552 µM
- TGI [53]: 1.31 µM
- GI50 [9]: 1.38 µM
- TGI [9]: 2.93 µM
- GI50 [10]: 3.33 µM
- TGI [10]: 8.74 µM
- GI50 [11]: 0.712 µM
- TGI [11]: 1.93 µM
- GI50 [54]: 1.36 µM
- TGI [54]: 3.74 µM
- GI50 [55]: 1.37 µM
- TGI [55]: 2.69 µM
- GI50 [12]: 0.895 µM
- TGI [12]: 9.71 µM
- GI50 [13]: 1.93 µM
- TGI [13]: 3.88 µM
- GI50 [14]: 1.6 µM
- TGI [14]: 3.12 µM
- GI50 [15]: 3.45 µM
- TGI [15]: 7.74 µM
- GI50 [56]: 7.17 µM
- TGI [56]: 33.4 µM
- GI50 [16]: 1.71 µM
- TGI [16]: 3.76 µM
- GI50 [17]: 1.24 µM
- TGI [17]: 2.62 µM
- GI50 [18]: 0.604 µM
- TGI [18]: 2.2 µM
- GI50 [19]: 1.75 µM
- TGI [19]: 3.33 µM
- GI50 [20]: 4.06 µM
- TGI [20]: 15.3 µM
- GI50 [21]: 2.7 µM
- TGI [21]: 7.14 µM
- GI50 [22]: 0.223 µM
- TGI [22]: 1.11 µM
- GI50 [24]: 1.53 µM
- TGI [24]: 3.2 µM
- GI50 [57]: 1.16 µM
- TGI [57]: 2.38 µM
- GI50 [25]: 10 µM
- TGI [25]: 23.1 µM
- GI50 [58]: 1.5 µM
- TGI [58]: 3.09 µM
- GI50 [27]: 1.35 µM
- TGI [27]: 2.65 µM
- GI50 [28]: 0.856 µM
- TGI [28]: 2.95 µM
- GI50 [59]: 0.899 µM
- TGI [59]: 3.52 µM
- GI50 [29]: 1.66 µM
- TGI [29]: 3.25 µM
- GI50 [30]: 2.05 µM
- TGI [30]: 4.35 µM
- GI50 [31]: 0.399 µM
- TGI [31]: 1.61 µM
- GI50 [32]: 0.468 µM
- TGI [32]: 2.63 µM
- GI50 [60]: 0.127 µM
- GI50 [33]: 10.7 µM
- TGI [33]: 27.8 µM
- GI50 [61]: 2 µM
- TGI [61]: 5.68 µM
- GI50 [34]: 3.02 µM
- TGI [34]: 7.69 µM
- GI50 [62]: 2.68 µM
- TGI [62]: 5.4 µM
- GI50 [35]: 2.03 µM
- TGI [35]: 3.72 µM
- GI50 [36]: 0.98 µM
- TGI [36]: 2.52 µM
- GI50 [63]: 3.38 µM
- TGI [63]: 11.8 µM
- GI50 [38]: 1.29 µM
- TGI [38]: 2.82 µM
- GI50 [40]: 2.02 µM
- TGI [40]: 4.77 µM
- GI50 [41]: 1.48 µM
- TGI [41]: 2.89 µM
- GI50 [64]: 3.65 µM
- TGI [64]: 10 µM
- GI50 [65]: 8.79 µM
- TGI [65]: 22.8 µM
- GI50 [43]: 1.82 µM
- TGI [43]: 3.31 µM
- GI50 [44]: 0.747 µM
- TGI [44]: 2.26 µM
- GI50 [45]: 1.73 µM
- TGI [45]: 3.45 µM
- GI50 [46]: 1.53 µM
- TGI [46]: 2.97 µM
- GI50 [47]: 2.04 µM
- TGI [47]: 4.47 µM
- GI50 [48]: 1.91 µM
- TGI [48]: 4.75 µM
- GI50 [66]: 0.843 µM
- TGI [66]: 2.13 µM
- GI50 [50]: 1.26 µM
- TGI [50]: 2.63 µM
- GI50 [51]: 1.65 µM
- TGI [51]: 3.03 µM
